Patent US8519123B2, “Pyrrolo[2,1-C][1,4]benzodiazepine linked imidazo[1,5-A]pyridine conjugates as potential antitumour agents and process for the preparation thereof” (Council of Scientific and Industrial Research, priority 2010, dated 2013)

Key:
calf thymus DNA (CT-DNA) = test: Thermal denaturation studies with duplex-form calf thymus DNA (DNA binding affinity); conditions: [PBD]:[DNA] molar ratio 1:5, CT-DNA 100 μM, ligand 20 μM, sodium phosphate buffer pH 7.00; for (ΔTm ° C.) after incubation at 37° C. for 0 h: 0 h incubation at 37° C.; for (ΔTm ° C.) after incubation at 37° C. for 18 h: 18 h incubation at 37° C.
Description: Compounds have been subjected to thermal denaturation studies with duplex-form calf thymus DNA (CT-DNA) using a modification of a reported procedure (Newman, M. S. Carcinog-compr. Surv. 1976, 1, 203; (b) Hecht, S. S.; Loy, M.; Hoffman, Carcinog-compr. Surv. 1976, 1, 325). Working solutions in aqueous buffer (10 mM NaH2PO4/Na2HPO4, 1 mM Na2EDTA, pH 7.00+0.01) containing CT-DNA (100 μm in phosphate) and the PBD (20 μm) have been prepared by addition of concentrated PBD solutions in DMSO to obtain a fixed [PBD]/[DNA] molar ratio of 1:5. The DNA-PBD solutions have been incubated at 37° C. for 0 and 18 h prior to analysis. Samples have been monitored at 260 nm using a Beckman DU-800 spectrophotometer fitted with high performance temperature controller, and heated at 1° C. min^−1 in the 40-110° C. range. DNA helix→coil transition temperatures (Tm) have been obtained from the maxima in the d(A260)/dT derivative plots. Drug-induced alterations in DNA melting behavior are given by: ΔTm=Tm(DNA+PBD)−Tm(DNA alone), where the Tm value for the PBD-free CT-DNA is 69.1±0.01.
The DNA binding activity for these novel C8-linked imidazo[1,5-a]pyridine PBD hybrids has been examined by thermal denaturation studies using calf thymus (CT) DNA. […] The data for the compounds 7a-l is included in Table 1 for comparison.

[1] = test system: lung cancer cell line (A549); test: In vitro cytotoxicity, MTT assay, 48 h continuous drug exposure; format: cell-based, human; conditions: A549 cells, 48 h exposure
Description: (§1) In vitro biological activity studies were carried out at the pharmacology division, IICT, Hyderabad. The compounds were evaluated for in vitro anticancer activity against five tumour cell lines derived from five cancer types (breast, cervix, mouse melanoma, lung and liver cancer) as shown in Table 2. For each compound, dose response curves for each cell line were measured at a minimum of five concentrations at 10 fold dilutions. A protocol of 48 h continuous drug exposure was used and a MTT assay was used to estimate cell viability or growth. The concentration causing 50% inhibition (IC50) compared with the control was calculated. Compounds 7a-7l have been evaluated for their in vitro cytotoxicity in five cell lines from five human cancer types. The results are expressed as IC50 determined relative to that of untreated control cells (Table-2).

[2] = test system: breast cancer cell line (MCF-7); test: as above; format: cell-based, human; conditions: 48 h exposure
Description: as §1

[3] = test system: liver cancer cell line (Hepg2); test: as above; format: cell-based, human; conditions: Hepg2 cells, 48 h exposure
Description: as §1

[4] = test system: cervical cancer cell line (Hela); test: as above; format: cell-based, human; conditions: Hela cells, 48 h exposure
Description: as §1

[5] = test system: mouse melanoma cancer cell line (B16); test: as above; format: cell-based; conditions: B16 cells, 48 h exposure
Description: as §1

[6] = Homo sapiens, MCF7, MCF-7 cells

Row | Structure (SMILES) | (ΔTm ° C.) after incubation at 37° C. for 0 h (calf thymus DNA (CT-DNA)) | (ΔTm ° C.) after incubation at 37° C. for 18 h (calf thymus DNA (CT-DNA)) | IC50 ([1]; Homo sapiens) | IC50 [2, 6] | IC50 ([3]; Homo sapiens) | IC50 ([4]; Homo sapiens) | IC50 ([5]; Mus musculus) | IC50 ([3]; Homo sapiens, HepG2, 48 h) | IC50 ([4]; Homo sapiens, HeLa, 48 h) | IC50 [3] | IC50 [1] | IC50 ([2]; MCF-7 cells) | IC50 [4] | IC50 [5]
1 | O=C(c1nc(-c2ccccc2)n2ccccc12)N1CCNCC1 [4a, (3-phenylimidazo[1,5-a]pyridin-1-yl)(piperazino)methanone] | 1.0 °C | 1.2 °C | > 100 µM | > 100 µM | > 100 µM | > 100 µM | > 100 µM | – | – | – | – | – | – | –
2 | COc1ccc(-c2nc(C(=O)N3CCNCC3)c3ccccn23)cc1 [4b, [3-(4-methoxyphenyl)imidazo[1,5-a]pyridin-1-yl](piperazino)methanone] | 1.1 °C | 1.2 °C | > 100 µM | > 100 µM | > 100 µM | > 100 µM | > 100 µM | – | – | – | – | – | – | –
3 | O=C(c1nc(-c2ccc(C(F)(F)F)cc2)n2ccccc12)N1CCNCC1 [4c, piperazino3-[4-(trifluoromethyl)phenyl]imidazo[1,5-a]pyridin-1-ylmethanone] | 0.1 °C | 0.4 °C | > 100 µM | > 100 µM | > 100 µM | > 100 µM | > 100 µM | – | – | – | – | – | – | –
4 | COc1cc2c(cc1OCCCN1CCN(C(=O)c3nc(-c4ccccc4)n4ccccc34)CC1)N=C[C@@H]1CCCN1C2=O [7a, (11aS)-7-methoxy-8-(3-4-[(3-phenylimidazo[1,5-a]pyridin-yl)carbonyl]piperazinopropoxy)-2,3,5,11a-tetrahydro-1H-benzo[e]pyrrolo[1,2-a]azepin-5-one] | 6.0 °C | 8.9 °C | 7.1 µM | 1.2 µM | – | – | 2.8 µM | 2.7 µM | 2.1 µM | – | – | – | – | –
5 | COc1cc2c(cc1OCCCCN1CCN(C(=O)c3nc(-c4ccccc4)n4ccccc34)CC1)N=C[C@@H]1CCCN1C2=O [7b, (11aS)-7-methoxy-8-(4-4-[(3-phenylimidazo[1,5-a]pyridin-yl)carbonyl]piperazinobutoxy)-2,3,5,11a-tetrahydro-1H-benzo[e]pyrrolo[1,2-a]azepin-5-one] | 6.0 °C | 8.9 °C | 15.9 µM | 2.87 µM | – | – | 2.67 µM | 2.83 µM | 1.24 µM | – | – | – | – | –
6 | COc1cc2c(cc1OCCCCCN1CCN(C(=O)c3nc(-c4ccccc4)n4ccccc34)CC1)N=C[C@@H]1CCCN1C2=O [7c] | 7.0 °C | 9.0 °C | – | 2.12 µM | – | – | 1.87 µM | 2.7 µM | 1.66 µM | 3.86 µM | – | – | – | –
7 | COc1cc2c(cc1OCCCCCCN1CCN(C(=O)c3nc(-c4ccccc4)n4ccccc34)CC1)N=C[C@@H]1CCCN1C2=O [7d] | 7.0 °C | 8.0 °C | 12.4 µM | 3.31 µM | – | – | 1.49 µM | 3.06 µM | 3.97 µM | – | – | – | – | –
8 | COc1cccc2c1C(=O)c1c(O)c3c(c(O)c1C2=O)C[C@@](O)(C(=O)CO)C[C@@H]3O[C@H]1C[C@H](N)[C@H](O)[C@H](C)O1 [ADR, adiramycin] | – | – | – | – | – | – | – | – | – | 1.85 µM | 2.9 µM | 1.6 µM | 0.13 µM | 0.34 µM
9 | C1=CC2=CN=c3ccccc3=CN2C1 [DC-81, pyrrolo[2,1-c][1,4]benzodiazepine] | 0.3 °C | 0.7 °C | 0.38 µM | 2.19 µM | – | – | 1.83 µM | 2.2 µM | 2.14 µM | – | – | – | – | –
